Source: patent publication US11046672B2, “Indolinones compounds and their use in the treatment of fibrotic diseases” (RESPIVERT LIMITED, priority 2015, dated 2021)
Read-outs that look alike come from different tables or passages of the source.

Tests used:
PDGFRβ [1] = target: T1, PDGFRβ (Homo sapiens (Human), UniProt P09619); test: PDGF-BB induced phosphorylation of PDGFRβ in fibroblasts (MRC5 cells, HTRF); type: cell-based; settings: MRC5 cells; n = 1 unless otherwise indicated; read-out: PDGFBB-induced PDGFRβ phosphorylation in MRC5 cells (IC50)
T1 sequence (P09619 33-1106): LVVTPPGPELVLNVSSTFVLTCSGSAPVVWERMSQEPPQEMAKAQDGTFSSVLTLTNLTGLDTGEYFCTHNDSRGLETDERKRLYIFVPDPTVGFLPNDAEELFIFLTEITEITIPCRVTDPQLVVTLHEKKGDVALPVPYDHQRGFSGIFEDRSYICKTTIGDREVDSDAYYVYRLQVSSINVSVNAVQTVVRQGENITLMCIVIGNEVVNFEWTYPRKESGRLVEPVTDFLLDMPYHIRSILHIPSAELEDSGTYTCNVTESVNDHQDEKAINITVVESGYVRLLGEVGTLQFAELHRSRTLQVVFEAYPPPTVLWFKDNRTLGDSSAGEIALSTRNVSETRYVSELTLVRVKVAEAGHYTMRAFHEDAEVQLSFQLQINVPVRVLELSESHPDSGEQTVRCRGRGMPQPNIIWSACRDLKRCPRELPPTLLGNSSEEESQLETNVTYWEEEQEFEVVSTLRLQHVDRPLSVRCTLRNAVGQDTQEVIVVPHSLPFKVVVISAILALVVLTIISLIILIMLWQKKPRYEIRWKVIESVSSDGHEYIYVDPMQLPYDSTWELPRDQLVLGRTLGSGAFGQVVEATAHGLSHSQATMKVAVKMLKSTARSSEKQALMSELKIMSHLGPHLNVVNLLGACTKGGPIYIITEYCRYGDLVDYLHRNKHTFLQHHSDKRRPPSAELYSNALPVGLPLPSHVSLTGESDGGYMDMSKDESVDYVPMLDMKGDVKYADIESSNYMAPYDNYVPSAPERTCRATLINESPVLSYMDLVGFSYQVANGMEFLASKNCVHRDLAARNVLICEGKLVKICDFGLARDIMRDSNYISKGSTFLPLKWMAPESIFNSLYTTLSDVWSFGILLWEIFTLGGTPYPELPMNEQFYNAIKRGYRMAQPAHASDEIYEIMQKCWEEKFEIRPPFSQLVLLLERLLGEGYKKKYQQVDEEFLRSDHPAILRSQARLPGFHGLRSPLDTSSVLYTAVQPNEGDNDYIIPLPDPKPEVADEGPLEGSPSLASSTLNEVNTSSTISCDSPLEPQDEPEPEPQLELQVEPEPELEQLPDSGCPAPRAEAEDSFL

PDGFRβ [2] = target: T1, PDGFRβ; test: Duration of action (washout) against PDGF-BB induced phosphorylation of PDGFRβ in human fetal lung fibroblast cells; type: cell-based; settings: MRC-5 cells, after wash-out, rhuPDGF-BB; experiments in Groups 1-4
PAMPA permeability assay = type: in vitro ADME; settings: PAMPA, donor and acceptor compartments
[3] = Pharmacokinetic measurements in rats (intravenous and intra-tracheal dosing); type: in vivo; settings: rat; for concentration at 6 h / concentration at 0.1 h / concentration at 1.5 h / concentration at 24 h: lung, read-out: lung concentration (nM) at time (h); for Kp at 6 h / Kp at 0.1 h / Kp at 1.5 h / Kp at 24 h: lung/plasma
[4] = Pharmacokinetic measurements in mice (intravenous and intra-nasal dosing); type: in vivo; settings: mouse; for concentration at 6 h / concentration at 0.1 h / concentration at 1.5 h / concentration at 24 h: lung, read-out: lung concentration (nM) at time (h); for Kp at 6 h / Kp at 0.1 h / Kp at 1.5 h: lung/plasma
PDGFRβ [5] = target: T1, PDGFRβ; settings: read-out: Ki PDGFRβ; mean, n = 2 unless otherwise indicated
MRC5 cells = test: Cell viability assay in MRC5 cells (MTT)

With `COC(=O)c1cc2c(cc1C)/C(=C(/Nc1ccc(C(=O)NOCCN(C)C)c(C)c1)c1ccccc1)C(=O)N2` [Example 5, (Z)-Methyl 3-(((4-((2-(dimethylamino)ethoxy)carbamoyl)-3-methylphenyl)amino)(phenyl)methylene)-5-methyl-2-oxoindoline-6-carboxylate] the IC50 (PDGFRβ [1]) was 7.74 nM, the “% phos: percentage phosphorylation after wash-out relative to maximal phosphorylation (100%)” value (PDGFRβ [2]) was 37.3% and the “% Recovery” value (PAMPA permeability assay) was 60.9%. It also gave a recovery at 5 hr, 10 μM (PAMPA permeability assay; pH 7, PAMPA) of 50.4%, a concentration at 6 h ([3]; male, CD, iv, 0.1 mg/kg, i.v. dosing, 6 h) of 92 nM and a concentration at 0.1 h ([3]; male, CD, iv, i.v. dosing, 0.1 h) of 475 nM. For the same compound, the concentration at 1.5 h ([3]; male, CD, iv, i.v. dosing, 1.5 h) was 251 nM, the concentration at 24 h ([3]; male, CD, iv, i.v. dosing, 24 h) was 52 nM and the concentration at 0.1 h ([3]; male, CD, other: intra-tracheal, i.t. dosing, 0.1 h) was 3590 nM. For the same compound, the concentration at 1.5 h ([3]; male, CD, other: intra-tracheal, i.t. dosing, 1.5 h) was 1710 nM, the concentration at 6 h ([3]; male, CD, other: intra-tracheal, i.t. dosing, 6 h) was 629 nM and the concentration at 24 h ([3]; male, CD, other: intra-tracheal, i.t. dosing, 24 h) was 747 nM. For the same compound, the Kp at 6 h ([3]; male, CD, iv, 0.1 mg/kg, i.v. dosing, 6 h, read-out: lung/plasma ratio at time(h)) was 26, the Kp at 0.1 h ([3]; male, CD, iv, i.v. dosing, 0.1 h, read-out: lung/plasma ratio at time(h)) was 24 and the Kp at 1.5 h ([3]; male, CD, iv, i.v. dosing, 1.5 h, read-out: lung/plasma ratio at time(h)) was 36. It also gave a Kp at 24 h ([3]; male, CD, iv, i.v. dosing, 24 h, read-out: lung/plasma ratio at time(h)) of 98, a Kp at 0.1 h ([3]; male, CD, other: intra-tracheal, i.t. dosing, 0.1 h, read-out: lung/plasma conc ratio at time(h)) of 74 and a Kp at 1.5 h ([3]; male, CD, other: intra-tracheal, i.t. dosing, 1.5 h, read-out: lung/plasma conc ratio at time(h)) of 362. The Kp at 6 h ([3]; male, CD, other: intra-tracheal, i.t. dosing, 6 h, read-out: lung/plasma conc ratio at time(h)) was 461, the Kp at 24 h ([3]; male, CD, other: intra-tracheal, i.t. dosing, 24 h, read-out: lung/plasma conc ratio at time(h)) was 1520 and the MRT ([3]; male, CD, plasma, iv, i.v. dosing) was 8 h. The clearance ([3]; male, CD, plasma, iv, i.v. dosing (i.v. dose 0.1-0.5 per compound)) was 2.88 L/h/kg, the Vd ([3]; male, CD, plasma, iv, i.v. dosing, read-out: Vss) was 23 L/kg and the half-life ([3]; male, CD, plasma, iv, i.v. dosing, read-out: t½ (converted)) was 7.6 h. The “Lung conc i.t./i.v. Ratio at time (h)” value ([3]; 0.1 h) was 7.6, the “Lung conc i.t./i.v. Ratio at time (h)” value ([3]; 1.5 h) was 6.8 and the “Lung conc i.t./i.v. Ratio at time (h)” value ([3]; 6 h) was 6.8. The “Lung conc i.t./i.v. Ratio at time (h)” value ([3]; 24 h) was 14.4, the “i.t. BAV (%)” value ([3]; i.t. dosing (i.t. dose 0.1-0.5 per compound)) was 70% and the “BAL % administered dose at time (h)” value ([3]; i.t. dosing, 0.1 h) was 3.1%. The “BAL % administered dose at time (h)” value ([3]; i.t. dosing, 1.5 h) was 0.6%, the “BAL % administered dose at time (h)” value ([3]; i.t. dosing, 6 h) was 0.3% and the “BAL % administered dose at time (h)” value ([3]; i.t. dosing, 24 h) was 0.2%. For the same compound, the “BAL % administered dose at time (h)” value ([3]; i.v. dosing, 0.1 h) was 0.04%, the “BAL % administered dose at time (h)” value ([3]; i.v. dosing, 1.5 h) was 0.01% and the “BAL % administered dose at time (h)” value ([3]; i.v. dosing, 6 h) was 0.01%. The “BAL % administered dose at time (h)” value ([3]; i.v. dosing, 24 h) was 0.01%, the “Oral BAV (%)” value ([3]; oral dose 3 mg/kg) was 4% and the concentration at 6 h ([4]; male, C57BL/6J, iv, 0.2 mg/kg, i.v. dosing, 6 h, mean) was 306 nM. It also gave a concentration at 0.1 h ([4]; male, C57BL/6J, iv, i.v. dosing, 0.1 h, mean) of 868 nM, a concentration at 1.5 h ([4]; male, C57BL/6J, iv, i.v. dosing, 1.5 h, mean) of 416 nM and a concentration at 24 h ([4]; male, C57BL/6J, iv, i.v. dosing, 24 h, mean) of 20 nM. For the same compound, the concentration at 0.1 h ([4]; male, C57BL/6J, other: intra-nasal, i.n. dosing, 0.1 h, mean) was 3510 nM, the concentration at 1.5 h ([4]; male, C57BL/6J, other: intra-nasal, i.n. dosing, 1.5 h, mean) was 1730 nM and the concentration at 6 h ([4]; male, C57BL/6J, other: intra-nasal, i.n. dosing, 6 h, mean) was 1320 nM. For the same compound, the concentration at 24 h ([4]; male, C57BL/6J, other: intra-nasal, i.n. dosing, 24 h, mean) was 363 nM, the Kp at 6 h ([4]; male, C57BL/6J, iv, 0.2 mg/kg, i.v. dosing, 6 h, read-out: lung/plasma ratio at time(h)) was 152 and the Kp at 0.1 h ([4]; male, C57BL/6J, iv, i.v. dosing, 0.1 h, read-out: lung/plasma ratio at time(h)) was 13. For the same compound, the Kp at 1.5 h ([4]; male, C57BL/6J, iv, i.v. dosing, 1.5 h, read-out: lung/plasma ratio at time(h)) was 39, the Kp at 0.1 h ([4]; male, C57BL/6J, other: intra-nasal, i.n. dosing, 0.1 h, read-out: lung/plasma conc ratio at time(h)) was 209 and the Kp at 1.5 h ([4]; male, C57BL/6J, other: intra-nasal, i.n. dosing, 1.5 h, read-out: lung/plasma conc ratio at time(h)) was 688. For the same compound, the Kp at 6 h ([4]; male, C57BL/6J, other: intra-nasal, i.n. dosing, 6 h, read-out: lung/plasma conc ratio at time(h)) was 1130, the clearance ([4]; male, C57BL/6J, whole blood, iv) was 6.66 L/h/kg and the MRT ([4]; male, C57BL/6J, whole blood, iv, i.v. dosing, mean) was 3.2 h. For the same compound, the Vd ([4]; male, C57BL/6J, whole blood, iv, i.v. dosing, mean, read-out: Vss) was 21 L/kg, the half-life ([4]; male, C57BL/6J, whole blood, iv, i.v. dosing, mean, read-out: t½ (converted)) was 2.6 h and the “Lung conc i.n./i.v. Ratio at time (h)” value ([4]; 0.1 h) was 4.0. For the same compound, the “Lung conc i.n./i.v. Ratio at time (h)” value ([4]; 1.5 h) was 4.2, the “Lung conc i.n./i.v. Ratio at time (h)” value ([4]; 6 h) was 4.3 and the “Lung conc i.n./i.v. Ratio at time (h)” value ([4]; 24 h) was 18.2. The “BAV (%)” value ([4]; i.n. dosing (i.n. dose 1 nintedanib, 0.2 examples), mean) was 14%, the “BAL % administered dose at time (h)” value ([4]; i.n. dosing, 0.1 h) was 1% and the “BAL % administered dose at time (h)” value ([4]; i.n. dosing, 1.5 h) was 0.1%. The “BAL % administered dose at time (h)” value ([4]; i.n. dosing, 6 h) was 0.3%, the “BAL % administered dose at time (h)” value ([4]; i.n. dosing, 24 h) was 0.1% and the “BAL % administered dose at time (h)” value ([4]; i.v. dosing, 0.1 h) was 0.07%. For the same compound, the “BAL % administered dose at time (h)” value ([4]; i.v. dosing, 1.5 h) was 0.02%, the “BAL % administered dose at time (h)” value ([4]; i.v. dosing, 6 h) was 0.01% and the “BAL % administered dose at time (h)” value ([4]; i.v. dosing, 24 h) was 0.02%. The “BAV (%)” value ([4]; oral dosing (oral dose 60 mg/kg nintedanib, 10 mg/kg examples), mean) was 13%, the Ki (PDGFRβ [5]) was 7.13 nM and the “Cell viability at 100 nM (%)” value (MRC5 cells; 100 nM) was 100.6%. For the same compound, the “Cell viability at 300 nM (%)” value (MRC5 cells; 300 nM) was 92.5% and the “Cell viability at 1000 nM (%)” value (MRC5 cells; 1000 nM) was 71.5%.
